pEC50: −log10 of the molar value. Like-named read-outs stand apart in the source and are kept apart here.
What was measured:
Type in all cases: cell-based
MKN45 cells = test: MKN45 cell proliferation assay (Cell-Titer-Glo, 120 hr); conditions: for pEC50: read-out: MKN45 Cell Prolif. 120 hr EC50; for MKN45 Cell Prolif. 120 hr YMin (%): minimal percent of DMSO control observed
Excerpt: (§1) MKN45 cells were obtained from Celgene internal cell banks and cultured in RPMI complete media (RPMI-1640, 1× Penicillin/Streptomycin, 1× glutamine, 1× Sodium Pyruvate, Non-essential Amino Acids, 10% Fetal Bovine serum, all component from Thermo-Fisher). MDA-MB-231 cells were obtained from the ATCC (HTB-26) and cultured in RPMI-1640 and 10% Fetal Bovine serum; MDA-MB-231 cells were expanded and stored as aliquots in liquid nitrogen in Celgene internal cell banks. Compounds were dispensed into 384-well plates using an HP DE300 compound printer in triplicate with 8 compounds on each plate. Compounds were dispensed into 384-well black clear bottom plates (Corning #3764BC) using an EDC acoustic dispenser at BMS. For each compound, a 10-point dose response was printed at half-log dilutions starting at either 1 uM or 10 uM in triplicate for MKN45 cells and in duplicate for MDA-MB-231 cells. The DMSO concentration was kept constant for a final assay concentration of 0.1% per well assuming 50 ul final media volume. Compound plates were sealed and frozen at −20 C until use.
(§2) For each assay batch, compound plates were thawed and allowed to reach room temperature, and cells were seeded at 400 MKN45 cells per well, or 800 MDA-MB-231 cells per well, in 50 ul media listed above for each cell line. After 120 hours of incubation at 37 C and 5% CO2, cells were lysed by addition of 25 μL of Cell-Titer-Glo Reagent (Promega Corporation, Madison, WI), as per manufacturer's instructions, protected from light, shaken for 45 minutes, and total luminescence read by a Perkin Elmer Envision plate reader. Total luminescence signal is linearly correlated with cell number remaining in the well.
(§3) Luminescence data was processed per plate by subtracting reagent-only “blank” well luminescence from all measured values and calculating a percent of DMSO control value for each treatment well. Then, to determine the half-maximal effective concentration (EC50) values for cell growth inhibition, a four parameter logistic model was fit to the data for each DMSO-normalized compound: Sigmoidal Dose-Response Model: (FIT=(A+((B−A)/1+((C/x)^D)))) where C is the inflection point ([…]), D is the Hill slope, and A and B are the low and high limits of the fit respectively. The lower limit of the fit (value A) is referred to as Ymin-calculated. The minimal percent of DMSO control that is observed in the concentrations tested for each compound is labeled as “Ymin-obs”, and was recorded and reported in the tables. Sigmoidal fit curves were processed and evaluated using Activity Base (IDBS, Alameda, CA) or using Dotmatics (Boston, MA). N/A=not available at the present time.

WEE1 = target: T1, WEE1 (Homo sapiens, UniProt P30291+Q96SW2); test: WEE1-ePL degradation assay (293T-LentiX, InCELL Hunter luminescence, 4 hr); conditions: for DC50: LentiX-HEK293T cells expressing WEE1-ePL, 4 hr incubation, read-out: 293T-LentiX WEE1-ePL Degradation 4 hr EC50; for 293T-LentiX WEE1-ePL Degradation 4 hr YMin (%): lower limit of fit, % of DMSO control signal remaining
T1 construct: C-terminal ePL-tagged (DiscoverX, Fremont, CA) full-length WEE1 expression construct; expressed in transfected cells; host or cells: LentiX-HEK293T (Invitrogen), lentivirally transduced; the cells also over-express GSPT1-GN
Excerpt: To generate LentiX-WEE1-ePL-GSPT1-ND cells for the WEE1 degradation assay, LentiX-HEK293T (Invitrogen) were tranduced by lentivirus with a C-terminal ePL-tagged (DiscoverX, Fremont, CA) full-length WEE1 expression construct. A separate lentiviral construct was introduced to over-express a mutated form of GSPT1 (NP_002085), termed GSPT1-GN, which contains a G575N mutation and is further truncated in the first 158 amino acids. GSPT1-GN is functional but not degradable by Cereblon. Cells were selected and maintained in complete DMEM media (DMEM, 10% Heat Inactivated FBS, 400 μg/mL Geneticin, and 1 μg/mL puromycin at 37 C and 5% CO2). Cells were passaged every 3-4 days by reseeding 1×10^6 cells in a T150 flask.
Cells were dispensed into 384-well white plates (Corning #3570, NY) that were pre-spotted with compounds using an acoustic dispenser (Echo acoustic transfer system, Beckman Coulter Life Sciences, Carlsbad, CA) as a 10-point dose-response curve with a 3-fold dilution starting at either 1 uM or 10 uM and including a DMSO control. Twenty-five microliters of media containing 2500 cells for LentiX-oeWEE1-ePL was dispensed per well. Assay plates were incubated at 37° C. with 5% CO2 for four hours (WEE1) After incubation, 25 μL of the InCELL Hunter™ Detection Reagent Working Solution (DiscoverX, Fremont, CA) was added to each well and incubated at room temperature for 30 minutes protected from light. After 30 minutes, luminescence was read on a PHERAstar luminometer (Cary, NC).
To determine the half-maximal effective concentration (EC50) values for WEE1-ePL degradation, a four parameter logistic model was used: (Sigmoidal Dose-Response Model) (FIT=(A+((B−A)/1+((C/x)^D)))) where C is the inflection point (EC50), D is the Hill slope, and A and B are the low and high limits of the fit respectively). The lower limit of the fit (value A) is referred to as Ymin. […] The maximum limit constraint, Ymax, is similarly derived using DMSO control. The curves were processed and evaluated using Activity Base (IDBS, Alameda, CA) or using Dotmatics (Boston, MA).

MDA-MB-231 cells = test: MDA-MB-231 cell proliferation assay (Cell-Titer-Glo, 120 hr); conditions: for pEC50: read-out: MDA-MB 231 Cell Prolif. 120 hr EC50; for MDA-MB 231 Cell Prolif. 120 hr YMin (%): minimal percent of DMSO control observed
Excerpt: as §1, §2, §3

[1] = Homo sapiens, MDA-MB-231, 120 h

T1 sequence (P30291 whole entry): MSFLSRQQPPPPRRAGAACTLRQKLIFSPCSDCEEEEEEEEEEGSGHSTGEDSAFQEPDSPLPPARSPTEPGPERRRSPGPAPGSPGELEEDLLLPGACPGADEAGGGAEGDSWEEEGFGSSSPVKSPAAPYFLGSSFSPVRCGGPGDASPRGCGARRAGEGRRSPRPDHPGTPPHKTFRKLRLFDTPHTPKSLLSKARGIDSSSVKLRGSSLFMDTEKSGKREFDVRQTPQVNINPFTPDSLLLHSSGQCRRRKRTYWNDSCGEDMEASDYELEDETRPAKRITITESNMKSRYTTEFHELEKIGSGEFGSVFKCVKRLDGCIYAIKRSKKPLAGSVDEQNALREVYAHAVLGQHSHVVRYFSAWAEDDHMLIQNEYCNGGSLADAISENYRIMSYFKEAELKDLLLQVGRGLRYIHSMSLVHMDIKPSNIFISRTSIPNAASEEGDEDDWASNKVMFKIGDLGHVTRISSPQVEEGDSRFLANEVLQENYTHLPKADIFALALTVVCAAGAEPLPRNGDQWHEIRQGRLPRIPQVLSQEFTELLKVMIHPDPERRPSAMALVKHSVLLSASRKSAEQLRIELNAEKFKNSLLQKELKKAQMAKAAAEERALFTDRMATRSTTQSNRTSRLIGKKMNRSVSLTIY
T1 sequence (Q96SW2 whole entry): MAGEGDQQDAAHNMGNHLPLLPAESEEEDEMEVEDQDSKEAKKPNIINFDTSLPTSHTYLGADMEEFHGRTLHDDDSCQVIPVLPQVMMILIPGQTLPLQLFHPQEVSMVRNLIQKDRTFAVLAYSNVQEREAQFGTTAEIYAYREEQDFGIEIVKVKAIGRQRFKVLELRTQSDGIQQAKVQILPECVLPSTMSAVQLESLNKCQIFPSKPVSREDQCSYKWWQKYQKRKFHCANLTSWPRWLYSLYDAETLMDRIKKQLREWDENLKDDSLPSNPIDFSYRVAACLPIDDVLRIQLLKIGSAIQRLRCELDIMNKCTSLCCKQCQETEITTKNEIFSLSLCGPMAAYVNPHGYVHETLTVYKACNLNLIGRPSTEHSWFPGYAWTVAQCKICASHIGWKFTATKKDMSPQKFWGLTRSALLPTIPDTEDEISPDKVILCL
T1 sequence (Q16531 whole entry partner): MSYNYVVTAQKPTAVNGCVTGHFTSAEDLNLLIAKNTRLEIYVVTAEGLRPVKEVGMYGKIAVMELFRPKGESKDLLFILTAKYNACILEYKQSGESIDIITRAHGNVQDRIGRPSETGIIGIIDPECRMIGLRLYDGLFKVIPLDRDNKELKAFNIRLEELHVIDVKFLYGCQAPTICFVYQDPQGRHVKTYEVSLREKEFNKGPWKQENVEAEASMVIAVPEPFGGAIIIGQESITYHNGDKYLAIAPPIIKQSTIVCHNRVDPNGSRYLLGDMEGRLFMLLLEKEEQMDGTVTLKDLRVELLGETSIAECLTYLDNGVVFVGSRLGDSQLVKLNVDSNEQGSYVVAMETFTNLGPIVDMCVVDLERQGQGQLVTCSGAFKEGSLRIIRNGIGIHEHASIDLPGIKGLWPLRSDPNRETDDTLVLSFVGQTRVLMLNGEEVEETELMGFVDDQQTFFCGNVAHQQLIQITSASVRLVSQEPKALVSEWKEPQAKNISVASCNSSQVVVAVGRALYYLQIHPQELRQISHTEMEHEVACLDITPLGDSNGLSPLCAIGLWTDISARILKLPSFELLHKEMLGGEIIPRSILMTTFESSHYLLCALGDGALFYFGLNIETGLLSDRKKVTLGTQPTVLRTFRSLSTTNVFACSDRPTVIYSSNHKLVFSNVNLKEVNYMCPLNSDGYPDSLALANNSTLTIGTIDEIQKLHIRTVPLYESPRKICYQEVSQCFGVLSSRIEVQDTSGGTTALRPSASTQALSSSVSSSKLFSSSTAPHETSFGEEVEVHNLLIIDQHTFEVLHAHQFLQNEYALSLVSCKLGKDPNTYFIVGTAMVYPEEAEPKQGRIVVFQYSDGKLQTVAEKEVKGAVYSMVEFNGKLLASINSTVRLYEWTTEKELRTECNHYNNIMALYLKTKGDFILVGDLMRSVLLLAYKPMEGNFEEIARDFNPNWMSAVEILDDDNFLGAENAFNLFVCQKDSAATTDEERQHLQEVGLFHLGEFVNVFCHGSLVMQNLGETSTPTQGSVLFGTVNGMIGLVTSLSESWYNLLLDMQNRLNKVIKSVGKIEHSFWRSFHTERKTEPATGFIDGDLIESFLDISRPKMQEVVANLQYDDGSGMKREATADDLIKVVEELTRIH

SMILES | pEC50 (MKN45 cells; Homo sapiens, MKN-45, 120 h) | DC50 (WEE1) | 293T-LentiX WEE1-ePL Degradation 4 hr YMin (%) (WEE1) | pEC50 (MDA-MB-231 cells; [1]) | pEC50 (MKN45 cells) | pEC50 (MDA-MB-231 cells) | MKN45 Cell Prolif. 120 hr YMin (%) (MKN45 cells) | MDA-MB 231 Cell Prolif. 120 hr YMin (%) (MDA-MB-231 cells)
O=C1CCC(N2C(=O)c3ccc(O[C@H]4CCN(Cc5cc(F)c6nc(C7CCOCC7)ccc6c5)C4)cc3C2=O)C(=O)N1 (single isomer, unassigned) [Example 26, 2-((R*)-2,6-dioxopiperidin-3-yl)-5-(((S)-1-((8-fluoro-2-(tetrahydro-2H-pyran-4-yl)quinolin-6-yl)methyl)pyrrolidin-3-yl)oxy)isoindoline-1,3-dione] |  | 8 nM | 32.8% |  | 7.41 | 6.00 | 12.3% | 53.8%
COC[C@@H]1CN(Cc2ccc3ccc(N4CCOCC4)nc3c2)C[C@H]1Oc1ccc2c(c1)CN([C@H]1CCC(=O)NC1=O)C2=O [Example 108, (3S)-3-(5-{[(3S,4S)-4-(methoxymethyl)-1-{[2-(morpholin-4-yl)quinolin-7-yl]methyl}pyrrolidin-3-yl]oxy}-1-oxo-2,3-dihydro-1H-isoindol-2-yl)piperidine-2,6-dione] | 6.47 | 8 nM | 61.2% | 5.51 |  |  | 89.6% | 82.8%
O=C1CCC(N2C(=O)c3ccc(O[C@H]4CCN(Cc5ccc6nc(N7CCOCC7)ncc6c5)C4)cc3C2=O)C(=O)N1 (single isomer, unassigned) [Example 27, 2-((R*)-2,6-dioxopiperidin-3-yl)-5-(((S)-1-((2-morpholino-quinazolin-6-yl)methyl)pyrrolidin-3-yl)oxy)isoindoline-1,3-dione] |  |  |  |  | 6.69 | 5.52 | 29.1% | 81.8%
O=C1CCC(N2C(=O)c3ccc(O[C@H]4CCN(Cc5ccc6nc(N7CCOCC7)ncc6c5)C4)cc3C2=O)C(=O)N1 (single isomer, unassigned) [Example 12, 2-((S*)-2,6-dioxopiperidin-3-yl)-5-(((S)-1-((2-morpholino-quinazolin-6-yl)methyl)pyrrolidin-3-yl)oxy)isoindoline-1,3-dione] | 6.47 |  |  | 5.57 |  |  | 40.6% | 79.6%

More lines, in order of rising pEC50 (MDA-MB-231 cells; [1]), values ahead:

pEC50 (MKN45 cells; Homo sapiens, MKN-45, 120 h) | DC50 (WEE1) | 293T-LentiX WEE1-ePL Degradation 4 hr YMin (%) (WEE1) | pEC50 (MDA-MB-231 cells; [1]) | pEC50 (MKN45 cells) | pEC50 (MDA-MB-231 cells) | SMILES | MKN45 Cell Prolif. 120 hr YMin (%) (MKN45 cells) | MDA-MB 231 Cell Prolif. 120 hr YMin (%) (MDA-MB-231 cells)
8.70 | 4 nM | 17.2% | 7.20 |  |  | COC[C@@H]1CN(Cc2cc(F)c3nc(C4CN(CC(C)(C)O)C4)ccc3c2)C[C@H]1Oc1ccc2c(c1)CN([C@H]1CCC(=O)NC1=O)C2=O [Example 120, (3S)-3-(5-{[(3S,4S)-1-({8-fluoro-2-[1-(2-hydroxy-2-methylpropyl)azetidin-3-yl]quinolin-6-yl}methyl)-4-(methoxymethyl)pyrrolidin-3-yl]oxy}-1-oxo-2,3-dihydro-1H-isoindol-2-yl)piperidine-2,6-dione] | 7.8% | 30.0%
9.00 | 1 nM | 29.6% | 7.55 |  |  | COC[C@@H]1CN(Cc2cc(F)c3nc(C4CCN(C(C)=O)C4)ccc3c2)C[C@H]1Oc1ccc2c(c1)CN([C@H]1CCC(=O)NC1=O)C2=O (relative stereo) [Example 67, rel-(3S)-3-(5-(((3S,4S)-1-((2-(1-acetylpyrrolidin-3-yl)-8-fluoroquinolin-6-yl)methyl)-4-(methoxymethyl)pyrrolidin-3-yl)oxy)-1-oxoisoindolin-2-yl)piperidine-2,6-dione] | 12.3% | 37.7%
8.40 | 3 nM | 27.1% | 7.57 |  |  | COC[C@@H]1CN(Cc2cc(F)c3nc(C4CCCOC4)ncc3c2)C[C@H]1Oc1ccc2c(c1)CN([C@H]1CCC(=O)NC1=O)C2=O (relative stereo) [Example 78, rel-(3S)-3-(5-{[(3S,4S)-1-{[8-fluoro-2-(oxan-3-yl)quinazolin-6-yl]methyl}-4-(methoxymethyl)pyrrolidin-3-yl]oxy}-1-oxo-2,3-dihydro-1H-isoindol-2-yl)piperidine-2,6-dione] | 7.7% | 22.5%
9.00 |  | 19.9% | 7.62 |  |  | COC[C@@H]1CN(Cc2cc(F)c3nc(N4CCN(C5COC5)CC4)ccc3c2)C[C@H]1Oc1ccc2c(c1)CN([C@H]1CCC(=O)NC1=O)C2=O [Example 142, (3S)-3-(5-{[(3S,4S)-1-({8-fluoro-2-[4-(oxetan-3-yl)piperazin-1-yl]quinolin-6-yl}methyl)-4-(methoxymethyl)pyrrolidin-3-yl]oxy}-1-oxo-2,3-dihydro-1H-isoindol-2-yl)piperidine-2,6-dione] | 7.1% | 43.3%
8.15 | 3 nM | 19.8% | 7.77 |  |  | COC[C@@H]1CN(Cc2cc(F)c3nc(C4CCC(O)CC4)ncc3c2)C[C@H]1Oc1ccc2c(c1)CN([C@H]1CCC(=O)NC1=O)C2=O (relative stereo) [Example 50, rel-(S)-3-(5-(((3S,4S)-1-((8-fluoro-2-(4-hydroxycyclohexyl)quinazolin-6-yl)methyl)-4-(methoxymethyl)pyrrolidin-3-yl)oxy)-1-oxoisoindolin-2-yl)piperidine-2,6-dione] | 8.7% | 19.3%
 |  | 27.9% | 8.10 |  |  | COC[C@@H]1CN(Cc2cc(F)c3nc(C4CC(C)(C)OC(C)(C)C4)ccc3c2)C[C@H]1Oc1ccc2c(c1)CN([C@H]1CCC(=O)NC1=O)C2=O [Example 53, (3S)-3-(5-{[(3S,4S)-1-{[8-fluoro-2-(2,2,6,6-tetramethyloxan-4-yl)quinolin-6-yl]methyl}-4-(methoxymethyl)pyrrolidin-3-yl]oxy}-1-oxo-2,3-dihydro-1H-isoindol-2-yl)piperidine-2,6-dione] | 10.5% | 13.4%

— patent US20250197374A1, “WEE1 DEGRADING COMPOUNDS AND USES THEREOF” (BRISTOL-MYERS SQUIBB COMPANY, priority 2023, published 2025)
